Common to all, as to format: biochemical
One test deals with EGFR WT (Homo sapiens (Human), UniProt P00533). Nature of the test: HotSpot radiometric kinase assay (Reaction Biology), EGFR WT. The following applies: 10 μM ATP. The procedure: (§1) Biochemical Assays for Inhibition of Wild-Type and Mutant EGFRs
(§2) Briefly, specific kinase/substrate pairs along with required cofactors were prepared in reaction buffer; 20 mM Hepes pH 7.5, 10 mM […], 1 mM EGTA, 0.02% Brij35, 0.02 mg/ml BSA, 0.1 mM Na3VO4, 2 mM DTT, 1% DMSO. Compounds were delivered into the reaction, followed […] later by addition of a mixture of ATP (Sigma, St. Louis MO) and ^33P ATP (Perkin Elmer, Waltham MA) to a final concentration of 10 μM. Reactions were carried out at room temperature for 120 min, followed by spotting of the reactions onto P81 ion exchange filter paper (Whatman Inc., Piscataway, NJ). Unbound phosphate was removed by extensive washing of filters in 0.75% phosphoric acid. […] IC50 values and curve fits were obtained using Prism (GraphPad Software).

The target of test [1] is EGFR L858R/T790M/C797S mutant (Homo sapiens (Human), UniProt P00533, C797S/L858R/T790M). Put plainly: HotSpot radiometric kinase assay, EGFR L858R/T790M/C797S mutant. The following applies: 10 μM ATP. How it is done:
as §1, §2

In a further test the target is EGFR (D770_N771insNPG) (Homo sapiens (Human), UniProt P00533, INS770NPG). Put plainly: HotSpot radiometric kinase assay, EGFR (D770_N771insNPG). The note with it: 10 μM ATP, read-out: EGFR (Δ770_N771insNPG) IC50. How it is done:
as §1, §2

A further test deals with EGFR Δ746-750 mutant (Homo sapiens (Human), UniProt P00533, DEL746-750). Put plainly: HotSpot radiometric kinase assay, EGFR Δ746-750 mutant. The following applies: 10 μM ATP. How it is done:
as §1, §2

The target of a further test is EGFR L858R mutant (Homo sapiens (Human), UniProt P00533, L858R). Put plainly: HotSpot radiometric kinase assay, EGFR L858R mutant. The note with it: 10 μM ATP. How it is done: as §1, §2
Sequence of EGFR L858R mutant (P00533 25-1210 L858R): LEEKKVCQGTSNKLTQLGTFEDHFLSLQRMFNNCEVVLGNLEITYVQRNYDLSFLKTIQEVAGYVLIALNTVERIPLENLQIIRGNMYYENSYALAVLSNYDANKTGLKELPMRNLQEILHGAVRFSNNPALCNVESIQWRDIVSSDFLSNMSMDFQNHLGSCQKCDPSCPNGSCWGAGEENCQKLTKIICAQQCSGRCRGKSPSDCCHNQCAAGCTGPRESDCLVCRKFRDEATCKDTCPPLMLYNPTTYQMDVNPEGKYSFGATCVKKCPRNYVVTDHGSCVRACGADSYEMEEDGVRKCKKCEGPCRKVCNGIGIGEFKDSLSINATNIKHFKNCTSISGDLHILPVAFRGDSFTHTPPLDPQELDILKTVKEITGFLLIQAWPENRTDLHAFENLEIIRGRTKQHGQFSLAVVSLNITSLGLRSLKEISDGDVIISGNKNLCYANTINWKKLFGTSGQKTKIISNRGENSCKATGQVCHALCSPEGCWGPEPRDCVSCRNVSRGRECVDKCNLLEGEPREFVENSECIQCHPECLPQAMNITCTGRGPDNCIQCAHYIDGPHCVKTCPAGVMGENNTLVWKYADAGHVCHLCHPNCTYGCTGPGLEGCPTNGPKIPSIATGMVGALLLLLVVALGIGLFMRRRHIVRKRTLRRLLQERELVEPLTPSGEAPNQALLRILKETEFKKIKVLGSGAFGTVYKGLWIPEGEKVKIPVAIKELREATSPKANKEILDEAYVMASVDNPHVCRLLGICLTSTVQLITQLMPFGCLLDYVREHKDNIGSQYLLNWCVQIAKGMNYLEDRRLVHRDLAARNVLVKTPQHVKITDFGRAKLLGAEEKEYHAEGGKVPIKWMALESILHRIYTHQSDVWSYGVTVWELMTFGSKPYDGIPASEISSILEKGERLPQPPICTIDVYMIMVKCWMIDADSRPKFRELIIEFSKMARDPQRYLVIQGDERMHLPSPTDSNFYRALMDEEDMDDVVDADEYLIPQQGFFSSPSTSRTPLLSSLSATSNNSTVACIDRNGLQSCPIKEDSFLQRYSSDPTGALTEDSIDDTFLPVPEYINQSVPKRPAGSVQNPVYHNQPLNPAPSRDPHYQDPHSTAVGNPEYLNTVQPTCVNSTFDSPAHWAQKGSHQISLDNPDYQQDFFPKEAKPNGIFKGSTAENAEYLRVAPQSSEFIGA

Where only a bound is given, the exact number is not on record here.

We go through 8 compounds from patent publication US20250353864A1, “INDAZOLE CONTAINING MACROCYCLES AND THEIR USE” (BLOSSOMHILL THERAPEUTICS, INC., priority 2022, published 2025).

Sequence of EGFR WT (P00533 25-1210): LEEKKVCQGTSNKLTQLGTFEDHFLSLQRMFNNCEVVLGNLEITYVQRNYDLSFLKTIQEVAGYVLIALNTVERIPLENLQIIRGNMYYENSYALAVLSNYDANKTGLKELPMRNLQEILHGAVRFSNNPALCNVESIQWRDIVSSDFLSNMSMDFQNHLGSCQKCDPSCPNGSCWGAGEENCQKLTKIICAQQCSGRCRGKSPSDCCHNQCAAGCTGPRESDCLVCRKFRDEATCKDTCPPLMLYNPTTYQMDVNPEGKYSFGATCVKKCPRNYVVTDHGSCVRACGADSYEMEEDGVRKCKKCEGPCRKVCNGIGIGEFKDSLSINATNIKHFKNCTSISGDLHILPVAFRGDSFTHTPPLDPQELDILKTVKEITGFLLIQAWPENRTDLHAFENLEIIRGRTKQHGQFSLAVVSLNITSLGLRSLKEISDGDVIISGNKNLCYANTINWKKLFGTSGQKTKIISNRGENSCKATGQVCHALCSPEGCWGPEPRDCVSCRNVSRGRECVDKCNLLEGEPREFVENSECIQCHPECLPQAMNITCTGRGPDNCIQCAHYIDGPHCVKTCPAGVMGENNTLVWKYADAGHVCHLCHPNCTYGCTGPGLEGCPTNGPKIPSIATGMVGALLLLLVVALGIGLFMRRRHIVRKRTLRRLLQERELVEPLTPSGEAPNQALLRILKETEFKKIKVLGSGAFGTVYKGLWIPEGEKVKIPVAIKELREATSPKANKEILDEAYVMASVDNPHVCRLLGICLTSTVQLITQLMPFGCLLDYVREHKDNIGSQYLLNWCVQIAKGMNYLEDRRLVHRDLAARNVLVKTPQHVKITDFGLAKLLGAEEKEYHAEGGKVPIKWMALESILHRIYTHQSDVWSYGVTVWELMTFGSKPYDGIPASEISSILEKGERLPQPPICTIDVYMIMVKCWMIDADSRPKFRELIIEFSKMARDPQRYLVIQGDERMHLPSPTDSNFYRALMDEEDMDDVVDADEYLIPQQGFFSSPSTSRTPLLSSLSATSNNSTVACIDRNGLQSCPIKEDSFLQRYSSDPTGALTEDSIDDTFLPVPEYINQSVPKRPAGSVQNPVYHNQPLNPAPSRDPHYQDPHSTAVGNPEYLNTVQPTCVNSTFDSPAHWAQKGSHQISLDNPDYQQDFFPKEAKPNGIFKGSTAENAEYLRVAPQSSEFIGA
Sequence of EGFR (D770_N771insNPG) (P00533 other isoform, or with tags, fused parts or gaps del 1-668/ins NPG behind 770 limits assumed): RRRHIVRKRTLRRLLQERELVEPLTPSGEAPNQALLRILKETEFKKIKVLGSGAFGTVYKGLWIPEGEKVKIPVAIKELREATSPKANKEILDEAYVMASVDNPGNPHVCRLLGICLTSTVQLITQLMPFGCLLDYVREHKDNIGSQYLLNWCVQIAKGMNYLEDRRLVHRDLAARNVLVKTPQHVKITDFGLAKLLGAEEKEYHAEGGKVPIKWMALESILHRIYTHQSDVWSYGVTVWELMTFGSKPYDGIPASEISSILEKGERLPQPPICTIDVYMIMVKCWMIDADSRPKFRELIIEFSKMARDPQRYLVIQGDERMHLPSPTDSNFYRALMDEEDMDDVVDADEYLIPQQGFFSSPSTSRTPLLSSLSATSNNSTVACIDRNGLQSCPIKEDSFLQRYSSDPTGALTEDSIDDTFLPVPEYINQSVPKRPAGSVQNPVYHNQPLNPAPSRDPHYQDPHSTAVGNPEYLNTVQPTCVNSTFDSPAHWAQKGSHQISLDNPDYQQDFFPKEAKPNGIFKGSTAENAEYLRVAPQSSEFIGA
Sequence of EGFR L858R/T790M/C797S mutant (P00533 25-1210 T790M/C797S/L858R): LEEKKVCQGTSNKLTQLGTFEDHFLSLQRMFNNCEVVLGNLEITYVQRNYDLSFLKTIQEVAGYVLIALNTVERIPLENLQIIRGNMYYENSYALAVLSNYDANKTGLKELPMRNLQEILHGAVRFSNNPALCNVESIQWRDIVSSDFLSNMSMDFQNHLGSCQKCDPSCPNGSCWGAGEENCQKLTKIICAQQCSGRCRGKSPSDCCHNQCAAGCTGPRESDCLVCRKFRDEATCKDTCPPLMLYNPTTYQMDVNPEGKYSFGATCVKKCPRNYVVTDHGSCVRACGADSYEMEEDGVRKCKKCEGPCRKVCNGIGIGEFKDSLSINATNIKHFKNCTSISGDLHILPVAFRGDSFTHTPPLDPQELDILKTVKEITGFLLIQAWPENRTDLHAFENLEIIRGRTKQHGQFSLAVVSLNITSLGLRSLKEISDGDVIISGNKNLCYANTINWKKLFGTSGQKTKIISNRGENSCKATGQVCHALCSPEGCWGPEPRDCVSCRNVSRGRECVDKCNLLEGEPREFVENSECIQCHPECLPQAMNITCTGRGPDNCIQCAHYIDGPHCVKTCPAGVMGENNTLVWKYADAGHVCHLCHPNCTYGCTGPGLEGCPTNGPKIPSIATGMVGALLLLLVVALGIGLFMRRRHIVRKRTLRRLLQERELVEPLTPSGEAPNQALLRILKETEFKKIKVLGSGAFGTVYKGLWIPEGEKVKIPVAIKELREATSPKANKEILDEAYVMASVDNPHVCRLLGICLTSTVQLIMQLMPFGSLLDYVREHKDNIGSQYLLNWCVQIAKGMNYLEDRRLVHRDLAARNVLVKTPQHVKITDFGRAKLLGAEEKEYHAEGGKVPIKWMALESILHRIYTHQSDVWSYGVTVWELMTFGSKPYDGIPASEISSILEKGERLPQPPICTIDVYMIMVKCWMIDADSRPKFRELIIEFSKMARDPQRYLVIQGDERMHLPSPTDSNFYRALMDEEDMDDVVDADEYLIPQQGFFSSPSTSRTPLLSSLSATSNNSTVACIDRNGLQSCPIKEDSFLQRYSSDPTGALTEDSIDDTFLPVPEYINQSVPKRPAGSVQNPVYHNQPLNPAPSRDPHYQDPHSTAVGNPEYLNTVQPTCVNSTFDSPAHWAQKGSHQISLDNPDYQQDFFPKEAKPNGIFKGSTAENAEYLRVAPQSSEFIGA
Sequence of EGFR Δ746-750 mutant (P00533 other isoform, or with tags, fused parts or gaps del 1-668/del 746-750 limits assumed): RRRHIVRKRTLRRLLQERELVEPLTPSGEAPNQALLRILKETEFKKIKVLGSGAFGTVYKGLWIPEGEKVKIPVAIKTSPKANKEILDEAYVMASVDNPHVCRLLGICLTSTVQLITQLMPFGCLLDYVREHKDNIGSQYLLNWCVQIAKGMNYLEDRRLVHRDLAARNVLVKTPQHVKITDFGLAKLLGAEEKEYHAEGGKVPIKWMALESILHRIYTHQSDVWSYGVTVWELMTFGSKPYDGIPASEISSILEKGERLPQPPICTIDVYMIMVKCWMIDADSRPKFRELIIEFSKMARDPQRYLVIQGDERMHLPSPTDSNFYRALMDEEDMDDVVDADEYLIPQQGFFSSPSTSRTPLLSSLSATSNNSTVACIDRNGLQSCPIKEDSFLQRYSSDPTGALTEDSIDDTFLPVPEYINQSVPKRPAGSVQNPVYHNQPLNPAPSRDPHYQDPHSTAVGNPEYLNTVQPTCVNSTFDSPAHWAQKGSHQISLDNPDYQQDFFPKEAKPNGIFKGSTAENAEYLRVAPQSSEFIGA

For `Cc1c2c(nn1CCO)OCCCOc1c(cnn1C)-c1ccc3[nH]nc(c3c1)/C=C/2` [Ex. 24, 2-[(17E)-8,16-dimethyl-2,8,11,12-tetrahydro-10H,15H-3,5-etheno[1,5]dioxacyclopentadecino[10,11-c:15,14-c′:6,7-c″]tripyrazol-15-yl]ethan-1-ol], the IC50 was over 1 µM on EGFR WT; 0.315 µM in test [1]; 1.77 µM at EGFR (D770_N771insNPG); 0.755 µM on EGFR Δ746-750 mutant; over 1 µM against EGFR L858R mutant.
`CC(=O)Cn1nc(C)c2c1OCCCOc1c(cnn1C)-c1ccc3[nH]nc(c3c1)/C=C/2` [Example 31, 1-[(17E)-8,16-dimethyl-2,8,11,12-tetrahydro-10H,14H-3,5-etheno[1,5]dioxacyclopentadecino[10,11-c:15,14-c′:6,7-c″]tripyrazol-14-yl]propan-2-one]: the IC50 at EGFR WT was found to be 0.927 µM; in test [1], 0.00493 µM; at EGFR (D770_N771insNPG) it was 0.731 µM; against EGFR Δ746-750 mutant, 0.0587 µM; on EGFR L858R mutant, 0.0677 µM.
In the case of `Cc1c2c(nn1CC(C)(C)O)OCCCOc1c(cnn1C)-c1ccc3[nH]nc(c3c1)/C=C/2` [Ex. 28, 1-[(17E)-8,16-dimethyl-2,8,11,12-tetrahydro-10H,15H-3,5-etheno[1,5]dioxacyclopentadecino[10,11-c:15,14-c′:6,7-c″ ]tripyrazol-15-yl]-2-methylpropan-2-ol], the IC50 against EGFR WT is over 1 µM; in test [1] it was 0.578 µM; at EGFR (D770_N771insNPG), over 1 µM; at EGFR Δ746-750 mutant, 0.819 µM; against EGFR L858R mutant it was 1 µM.
In test [1], `CNC(=O)c1cnc2c(c1)/C=C/c1n[nH]c3ccc(cc13)-c1cnn(C)c1COCCO2` [Example 3, (18E)-N,8-dimethyl-8,9,11,12-tetrahydro-2H-3,5-ethenodipyrazolo[3′,4′:9,10;4″,3″:13,14] [1,4]dioxacyclopentadecino[5,6-b]pyridine-16-carboxamide] returned an IC50 of 0.863 µM.
With `CCc1nn(C)c2c1/C=C/c1n[nH]c3ccc(cc13)-c1cnn(C)c1OCCCO2` [Ex. 10, (17E)-16-ethyl-8,14-dimethyl-2,11,12,14-tetrahydro-8H,10H-3,5-etheno[1,5]dioxacyclopentadecino[10,11-c:15,14-c′:6,7-c″]tripyrazole], the values for the IC50 at EGFR (D770_N771insNPG) and at EGFR Δ746-750 mutant were 0.713 µM and 0.0743 µM, respectively.
On to `Cc1c2c(nn1C)OCCCOc1c(cnn1C)-c1ccc3[nH]nc(c3c1)/C=C/2` [Ex. 9, (17E)-8,15,16-trimethyl-2,11,12,15-tetrahydro-8H,10H-3,5-etheno[1,5]dioxacyclopentadecino[10,11-c:15,14-c′:6,7-c″]tripyrazole], for which the IC50 at EGFR WT came out at 1.17 µM; in test [1] it was 0.0272 µM; at EGFR (D770_N771insNPG) it was 0.945 µM; on EGFR Δ746-750 mutant, 0.284 µM; at EGFR L858R mutant, 0.349 µM.
Turning to `Cn1ncc2c1OCCCCOc1ccccc1/C=C/c1n[nH]c3ccc-2cc13` [Ex. 16, (11E)-1-methyl-18,19,20,21-tetrahydro-1H,8H-10,7,4-(ethan[1]yl[1,2]diylidene)pyrazolo[3,4-g][1,6,13,14]benzodioxadiazacyclononad ecine], the IC50 turned out to be 0.523 µM against EGFR WT; 0.0484 µM in test [1]; 0.521 µM on EGFR (D770_N771insNPG); 0.132 µM at EGFR Δ746-750 mutant; 0.0492 µM on EGFR L858R mutant.
In the case of `Cc1ccc2c(n1)/C=C/c1n[nH]c3ccc(cc13)-c1cnn(C)c1O[C@@H](C)CCO2` [Ex. 39, (10S,18E)-8,10,16-trimethyl-2,8,11,12-tetrahydro-10H-3,5-ethenodipyrazolo[3′,4′:10,11;4″,3″:14,15] [1,5]dioxacyclopentadecino[7,6-b]pyridine], the IC50 was determined as 1.44 µM on EGFR (D770_N771insNPG) and 0.176 µM against EGFR Δ746-750 mutant.
